Broadly, the pIC50 is −log10 of the IC50, conventionally taken in molar units.

Assay type in all cases: functional, cell-based
Test [1] concerns SW1990. Description: Cytotoxicity against human SW1990 cells assessed as reduction in cell viability incubated for 72 hrs by CCK8 assay. The conditions noted are these: SW1990, 72 h. Background: Tetrazolium assays rely on reduction of a dye to a coloured formazan, in cell work by metabolically active cells.
For test [2], the system named is Huh-7. Briefly: Cytotoxicity against human HuH7 cells assessed as reduction in cell viability incubated for 72 hrs by CCK8 assay. The settings on record: Huh-7, 72 h.
The subject of test [3] is DU-145. Briefly: Cytotoxicity against human DU145 cells assessed as reduction in cell viability incubated for 72 hrs by CCK8 assay. The conditions noted are these: DU-145, 72 h.
Test [4] has as its system PANC-1. Description: Cytotoxicity against human PANC1 cells assessed as reduction in cell viability incubated for 72 hrs by CCK8 assay. The settings on record: PANC-1, 72 h.

pIC50: −log10 of the molar value. Some results are limits rather than exact numbers.

With `C=C1[C@@H](OC(=O)C(C)(C)[C@H](C)O)C[C@H]2C[C@@H]1[C@]21C[C@@]2(C[C@H](C)C(=O)O2)O[C@@H]1OCC1=C(/C=C/CCCCC)[C@@H](O)[C@@H]2O[C@@]23C[C@H](O)C(C)(C)O[C@@H]13`, the pIC50 was 5.14 in test [1], 5.08 in test [2], 4.77 in test [3] and 5.01 in test [4].
On to `CCCCC/C=C/C1=C(CO)[C@@H]2OC(C)(C)[C@@H](O)C[C@@]23O[C@H]3[C@@H]1O`, for which the pIC50 in test [1], in test [2], in test [3] and in test [4] was under 4.30 throughout.
Turning to `C=C1[C@@H](OC(=O)C(C)(C)[C@H](C)O)C[C@H]2C[C@@H]1[C@]21C[C@@]2(C[C@H](C)C(=O)O2)O[C@H]1OCC1=C(/C=C/CCCCC)[C@@H](O)[C@@H]2O[C@@]23C[C@H](O)C(C)(C)O[C@@H]13`, the pIC50 was 5.31 in test [1], 5.31 in test [2], 4.96 in test [3] and 5.10 in test [4].
On to `C=C1[C@@H](OC(=O)C(C)(C)[C@H](C)O)C[C@H]2C[C@@H]1[C@]21C[C@]2(C[C@H](C)C(=O)O2)O[C@@H]1OCC1=C(/C=C/CCCCC)[C@@H](O)[C@@H]2O[C@@]23C[C@H](O)C(C)(C)O[C@@H]13`, for which the pIC50 was 5.02 in test [1], 4.95 in test [2], 4.87 in test [3] and 4.99 in test [4].
For `C=C1[C@@H](OC(=O)C(C)(C)[C@H](C)O)C[C@H]2C[C@@H]1[C@]21C[C@]2(C[C@H](C)C(=O)O2)O[C@H]1OCC1=C(/C=C/CCCCC)[C@@H](O)[C@@H]2O[C@@]23C[C@H](O)C(C)(C)O[C@@H]13`, in that order: 5.09, 5.02, 4.87 and 5.12.

The record behind these values is ChEMBL document CHEMBL4414646, “Eutypellacytosporins A-D, Meroterpenoids from the Arctic Fungus Eutypella sp. D-1” (J Nat Prod, 2019).
